# From patent US10759813B2, “Neprilysin inhibitors” (THERAVANCE BIOPHARMA R&D IP, LLC, priority 2010, dated 2020)
# Molecular target: human neprilysin (EC 3.4.24.11; NEP) (Homo sapiens (Human), UniProt P08473)
# Assay: In vitro enzyme inhibition assay at human NEP (fluorogenic peptide substrate)
# Format: biochemical
# Conditions: pKi values at human NEP, recombinant human NEP
# Method: In Vitro Assays for the Quantitation of Inhibitor Potencies at Human and Rat NEP, and Human ACE
# The inhibitory activities of compounds at human and rat neprilysin (EC 3.4.24.11; NEP) and human angiotensin converting enzyme (ACE) were determined using in vitro assays as described below.
# Recombinant human NEP and recombinant human ACE were obtained commercially (R&D Systems, Minneapolis, Minn., catalog numbers 1182-ZN and 929-ZN, respectively). The fluorogenic peptide substrate Mca-D-Arg-Arg-Leu-Dap-(Dnp)-OH (Medeiros et al. (1997) Braz. J. Med. Biol. Res. 30:1157-62; Anaspec, San Jose, Calif.) and Abz-Phe-Arg-Lys(Dnp)-Pro-OH (Araujo et al. (2000) Biochemistry 39:8519-8525; Bachem, Torrance, Calif.) were used in the NEP and ACE assays respectively.
# The assays were performed in 384-well white opaque plates at 37° C. using the fluorogenic peptide substrates at a concentration of 10 μM in Assay Buffer (NEP: 50 mM HEPES, pH 7.5, 100 mM NaCl, 0.01% polyethylene glycol sorbitan monolaurate (Tween-20), 10 μM ZnSO4; ACE: 50 mM HEPES, pH 7.5, 100 mM NaCl, 0.01% Tween-20, 1 μM ZnSO4).
# Test compounds were assayed over the range of concentrations from 10 μM to pM. Test compounds were added to the enzymes and incubated for 30 minute at 37° C. prior to initiating the reaction by the addition of substrate. Reactions were terminated after 20 minutes of incubation at 37° C. by the addition of glacial acetic acid to a final concentration of 3.6% (v/v).
# Plates were read on a fluorometer with excitation and emission wavelengths set to 320 nm and 405 nm, respectively. Inhibition constants were obtained by nonlinear regression of the data using the equation (GraphPad Software, Inc., San Diego, Calif.): v=v0/[1+(I/K′)] where v is the reaction rate, v0 is the uninhibited reaction rate, I is the inhibitor concentration and K′ is the apparent inhibition constant.
# Compounds of the invention were tested in this assay and found to have pKi values at human NEP as follows.
# Sequence of human neprilysin (EC 3.4.24.11; NEP) (P08473 52-750): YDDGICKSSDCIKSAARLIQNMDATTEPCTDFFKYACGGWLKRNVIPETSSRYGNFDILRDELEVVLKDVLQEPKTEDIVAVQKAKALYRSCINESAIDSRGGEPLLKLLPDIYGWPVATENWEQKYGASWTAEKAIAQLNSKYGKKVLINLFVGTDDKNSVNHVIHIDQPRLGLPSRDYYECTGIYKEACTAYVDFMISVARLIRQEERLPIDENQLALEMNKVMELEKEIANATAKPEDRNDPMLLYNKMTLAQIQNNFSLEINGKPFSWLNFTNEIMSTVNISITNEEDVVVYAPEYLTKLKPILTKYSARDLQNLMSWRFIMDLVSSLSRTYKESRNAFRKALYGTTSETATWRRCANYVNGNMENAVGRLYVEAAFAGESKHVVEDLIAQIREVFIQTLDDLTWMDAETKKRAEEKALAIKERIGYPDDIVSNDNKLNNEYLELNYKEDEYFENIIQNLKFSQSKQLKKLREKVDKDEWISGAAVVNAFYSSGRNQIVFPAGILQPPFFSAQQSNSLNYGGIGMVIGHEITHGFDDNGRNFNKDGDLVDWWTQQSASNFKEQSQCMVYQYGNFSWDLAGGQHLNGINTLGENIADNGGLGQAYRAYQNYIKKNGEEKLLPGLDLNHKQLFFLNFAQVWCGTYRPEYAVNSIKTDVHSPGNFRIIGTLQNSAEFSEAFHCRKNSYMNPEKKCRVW
SMILES,Ki [nM],pKi
"O=C(N[C@H](Cc1ccc(-c2ccccc2)cc1)CC(O)C(=O)O)c1cc(-c2ccco2)[nH]n1 (stereo partly drawn) [Example 15-37, (R)-5-Biphenyl-4-yl-4-[(5-furan-2-yl-1H-pyrazole-3-carbonyl)amino]-2-hydroxy-pentanoic acid]",1.26 to 10,–
"O=C(N[C@H](Cc1ccc(-c2ccccc2)cc1)CC(O)C(=O)O)c1ccc(C(=O)O)nc1 (stereo partly drawn) [Example 13-8, 5-((R)-1-Biphenyl-4-ylmethyl-3-carboxy-3-hydroxypropylcarbamoyl)-pyridine-2-carboxylic acid]",12.6 to 100,–
"O=C(N[C@H](Cc1ccc(-c2ccccc2)cc1)C[C@@H](O)C(=O)O)c1cc(NC(=O)c2ccccc2Cl)on1 [Example 12-22, (2R,4R)-5-Biphenyl-4-yl-4-{[5-(2-chlorobenzoylamino)-isoxazole-3-carbonyl]-amino}-2-hydroxy-pentanoic acid]",–,≥9.0
"O=C(N[C@H](Cc1ccc(-c2ccccc2)cc1)C[C@@H](O)C(=O)O)c1cc2n(n1)CCOc1ccccc1-2 [Example 16-1, (2R,4R)-5-Biphenyl-4-yl-4-[(4,5-dihydro-6-oxa-3,3a-diaza-benzo[e]azulene-2-carbonyl)-amino]-2-hydroxy-pentanoic acid]",–,≥9.0
"O=C(N[C@H](Cc1ccc(-c2cccc(Cl)c2)cc1)C[C@@H](O)C(=O)O)c1cc(-c2cnccn2)n[nH]1 [Example 18-19, (2R,4R)-5-(3′-Chlorobiphenyl-4-yl)-2-hydroxy-4-[(5-pyrazin-2-yl-2H-pyrazole-3-carbonyl)-amino]-pentanoic acid]",–,≥9.0
"CC(=O)OCOn1nncc1C(=O)N[C@H](Cc1ccc(-c2cc(Cl)ccc2F)cc1)C[C@@H](O)C(=O)O [Example 19-18, (2R,4R)-4-[(3-Acetoxymethoxy-3H-[1,2,3]triazole-4-carbonyl)-amino]-5-(5′-chloro-2′-fluoro-biphenyl-4-yl)-2-hydroxy-pentanoic acid]",–,≥9.0
"O=C(N[C@H](Cc1ccc(-c2ccccc2)cc1)C[C@H](O)C(=O)O)c1cnc2[nH]nnc2c1 [Example 11-13, (2S,4R)-5-Biphenyl-4-yl-2-hydroxy-4-[(3H-[1,2,3]triazolo[4,5-b]pyridine-6-carbonyl)-amino]-pentanoic acid]",–,≥9.0
"O=C(O)c1ccc(C(=O)N[C@H](Cc2ccc(-c3ccccc3)cc2)CC(O)C(=O)O)s1 (stereo partly drawn) [Example 12-2, 5-((R)-1-Biphenyl-4-ylmethyl-3-carboxy-3-hydroxypropylcarbamoyl)thiophene-2-carboxylic acid]",1.26 to 10,–
"O=C(N[C@H](Cc1ccc(-c2ccccc2)cc1)CC(O)C(=O)O)c1cc(-c2ccc(F)cc2)n[nH]1 (stereo partly drawn) [Example 15-82, (R)-5-Biphenyl-4-yl-4-{[5-(4-fluorophenyl)-2H-pyrazole-3-carbonyl]amino}-2-hydroxy-pentanoic acid]",1.26 to 10,–
"O=C(N[C@H](Cc1ccc(-c2ccccc2)cc1)CC(O)C(=O)O)c1cc(-c2ccc3ccccc3c2)[nH]n1 (stereo partly drawn) [Example 15-38, (R)-5-Biphenyl-4-yl-2-hydroxy-4-[(5-naphthalen-2-yl-1H-pyrazole-3-carbonyl)amino]-pentanoic acid]",1.26 to 10,–
"O=C(O)c1ccc(Cn2nnc3cc(C(=O)N[C@H](Cc4ccc(-c5ccccc5)cc4)C[C@H](O)C(=O)O)ccc32)cc1 [Example 11-2, 4-[5-((1R,3S)-1-Biphenyl-4-ylmethyl-3-carboxy-3-hydroxypropylcarbamoyl)-benzotriazol-1-ylmethyl]-benzoic acid]",12.6 to 100,–
"O=C(N[C@H](Cc1ccc(-c2ccccc2)cc1)CC(O)C(=O)O)c1cc(C(=O)O)n(Cc2cc(F)ccc2Cl)n1 (stereo partly drawn) [Example 15-10, 5-((R)-1-Biphenyl-4-ylmethyl-3-carboxy-3-hydroxy-propylcarbamoyl)-2-(2-chloro-5-fluorobenzyl)-2H-pyrazole-3-carboxylic acid]",1.26 to 10,–
"CC(C)c1cc(C(=O)N[C@H](Cc2ccc(-c3ccccc3)cc2)CC(O)C(=O)O)[nH]n1 (stereo partly drawn) [Example 15-73, (R)-5-Biphenyl-4-yl-2-hydroxy-4-[(5-isopropyl-2H-pyrazole-3-carbonyl)amino]-pentanoic acid]",12.6 to 100,–
"O=C(N[C@H](Cc1ccc(-c2ccccc2)cc1)C[C@@H](O)C(=O)O)c1cc(-c2ccccc2Cl)on1 [Example 12-16, (2R,4R)-5-Biphenyl-4-yl-4-{[5-(2-chlorophenyl)-isoxazole-3-carbonyl]-amino}-2-hydroxy-pentanoic acid]",–,≥9.0
"O=C(N[C@H](Cc1ccc(-c2ccccc2)cc1)C[C@@H](O)C(=O)O)c1cc(-c2ccccc2Cl)n[nH]1 [Example 15-84, (2R,4R)-5-Biphenyl-4-yl-4-{[5-(2-chlorophenyl)-2H-pyrazole-3-carbonyl]amino}-2-hydroxy-pentanoic acid]",–,≥9.0
"COc1ccccc1C(=O)Nc1cc(C(=O)N[C@H](Cc2ccc(-c3cccc(Cl)c3)cc2)C[C@@H](O)C(=O)O)[nH]n1 [Example 18-31, (2R,4R)-5-(3′-Chloro-biphenyl-4-yl)-2-hydroxy-4-{[5-(2-methoxy-benzoylamino)-2H-pyrazole-3-carbonyl]-amino}-pentanoic acid]",–,≥9.0
"O=C(N[C@H](Cc1ccc(-c2ccccc2)cc1)CC(O)C(=O)O)c1ccc2[nH]nnc2c1 (stereo partly drawn) [Example 11-3, (R)-4-[(1H-Benzotriazole-5-carbonyl)amino]-5-biphenyl-4-yl-2-hydroxypentanoic acid]",1.26 to 10,–
"COc1ccccc1C(=O)Nc1cc(C(=O)N[C@H](Cc2ccc(-c3ccccc3)cc2)CC(O)C(=O)O)[nH]n1 (stereo partly drawn) [Example 15-95, (R)-5-Biphenyl-4-yl-2-hydroxy-4-{[5-(2-methoxy-benzoylamino)-2H-pyrazole-3-carbonyl]-amino}-pentanoic acid]",1.26 to 10,–
"O=C(N[C@H](Cc1ccc(-c2cccc(Cl)c2)cc1)C[C@@H](O)C(=O)O)c1ccc(O)nn1 [Example 18-50, (2R,4R)-5-(3′-Chlorobiphenyl-4-yl)-2-hydroxy-4-[(6-hydroxy-pyridazine-3-carbonyl)-amino]-pentanoic acid]",–,≥9.0
"O=C(N[C@H](Cc1ccc(-c2ccccc2)cc1)C[C@@H](O)C(=O)O)c1cc2nn1CCOc1ccccc1-2 [Example 16-2, (2R,4R)-5-Biphenyl-4-yl-2-hydroxy-4-[(8-oxa-11,14-diaza-tricyclo[9.2.1.02,7]tetradeca-1(14),2,4,6,12-pentaene-12-carbonyl)-amino]-pentanoic acid]",12.6 to 100,–
"O=C(N[C@H](Cc1ccc(-c2cccc(Cl)c2)cc1)C[C@@H](O)C(=O)O)c1cc(-c2ccccc2O)on1 [Example 18-16, (2R,4R)-5-(3′-Chlorobiphenyl-4-yl)-2-hydroxy-4-{[5-(2-hydroxyphenyl)-isoxazole-3-carbonyl]-amino}-pentanoic acid]",–,≥9.0
"O=C(N[C@H](Cc1ccc(-c2ccccc2)cc1)C[C@@H](O)C(=O)O)c1cc(-c2ccc(Cl)cc2Cl)[nH]n1 [Example 15-26, (2R,4R)-5-Biphenyl-4-yl-4-{[5-(2,4-dichlorophenyl)-1H-pyrazole-3-carbonyl]-amino}-2-hydroxy-pentanoic acid]",–,≥9.0
"NC(=O)C1CCN(C(=O)c2cc(C(=O)N[C@H](Cc3ccc(-c4ccccc4)cc3)C[C@H](O)C(=O)O)[nH]n2)C1 (stereo partly drawn) [Example 15-44, (2S,4R)-5-Biphenyl-4-yl-4-{[5-(3-carbamoylpyrrolidine-1-carbonyl)-2H-pyrazole-3-carbonyl]-amino}-2-hydroxy-pentanoic acid]",1.26 to 10,–
